Here are results for two compounds from US10278954B2, “Method of treating a CNS disorder using a water-soluble histone deacetylase inhibitor” (priority 2016, dated 2019).

Each structure is given as a SMILES string.

The test system of one data set is synaptophysin. Kind of data set: Synaptophysin ELISA of protein isolated from rat brain. Format: in vivo. As to conditions: 21 days after infusion; 1 way ANOVA p>0.05. The protocol: A) Immunofluorescent microscopy of fixed rat brain for neurons (NeuN) and glia (GFAP) 21 days after acute striatal infusion of 5 μl of either aCSF (control), F127-aCSF or F127-PAN. B) Synaptophysin ELISA of protein isolated from rat brain 21 days after infusion comparing F127-aCSF, F127-PAN and Panobinostat in DMSO against aCSF and untreated controls. […] (1 way ANOVA p>0.05).
In general terms: ELISA stands for enzyme-linked immunosorbent assay.

Data set [1] deals with normal hippocampal neuronal and glial cells. Briefly: Toxicity in normal hippocampal cultures (B3 tubulin, GFAP staining). Format: cell-based. As to conditions: 6 h dosing, assayed 72 h after. As to the method: Normal hippocampal cells were plated onto coverslips and grown for 72 h prior to dosing with sodium valproate to assess the toxicity of the drug against normal neuronal and glial cells. Cells were drugged with sodium valproate for 6 h, after which time the drug was washed off and fresh media added. Cells were further incubated for 72 h prior to fixing and staining with B3 tubulin (neuronal marker) and GFAP (glial cell marker) to determine to the toxicity of sodium valproate.

The next data set has as its system SF8628 glioma cell line. Briefly: MTT assay, SF8628. Format: cell-based, human. The protocol:
(§1) Two independent glioma cell lines (A) SF7761 and (B) SF8628 were dosed with sodium valproate for 72 h, then subjected to an MTT assay to assess the effect of the drug on proliferation of glioma cells. Results are expressed as a % relative to untreated control. […] Two glioma cell lines (A) SF7761 and (B) SF8628 were dosed with sodium valproate for 72 h, followed by 6 h of carboplatin, after which, the drug was washed out and given fresh sodium valproate. Proliferation was assessed by MTT assay, and results expressed as a % relative to the untreated control cells.

The test system of a further data set is SF7761 glioma cell line. Briefly: MTT assay, SF7761. Format: cell-based, human. The protocol:
as §1
(In general: Formazan colour is commonly taken as a measure of viable cells.)

A further data set relates to glioma cell line. Briefly: MTT assay, 6 h sequential dosing on two consecutive days. Format: cell-based, human. As to the method: One glioma cell line thus far has been tested with (A) 6 h dosing of VPA repeated one two consecutive days, followed by assessment of proliferation by MTT.
[2] abbreviates: pre-conditioning with sodium valproate prior to carboplatin.
Setting [3] is: sodium valproate 72 h, then 6 h carboplatin.

With `Cc1[nH]c2ccccc2c1CCNCc1ccc(/C=C/C(=O)NO)cc1` [Panobinostat in DMSO, panobinostat], in the data set on synaptophysin, the “synaptophysin concentration against aCSF and untreated controls” value was “No significant difference detected”.

On to `CCCC(CCC)C(=O)[O-].[Na+]` [sodium valproate], for which the “glial toxicity (GFAP)” value in data set [1] (20 mM) is on record as “Some toxicity”. Also, the “neuronal toxicity (B3 tubulin)” value in data set [1] is “minimal neuronal toxicity”. For the same compound, the “cytotoxicity (proliferation, % relative to untreated control)” value in the data set with SF8628 glioma cell line (72 h dosing) and with SF7761 glioma cell line (72 h dosing) was “causes cytotoxicity to glioma cells in a dose dependent manner” in each case. Besides, the “combination index (CI)” value with SF8628 glioma cell line (setting [2]) and in the data set with SF7761 glioma cell line (setting [2]) was “below 1” in each case. Moreover, the “effect of pre-dosing on cytotoxicity of carboplatin” value in the data set on SF8628 glioma cell line (setting [3]) and in the data set on SF7761 glioma cell line (setting [3]) was “potentiates the cytotoxicity of carboplatin” throughout. Also, the “cell viability, % relative to control” value with glioma cell line (6 h dosing on two consecutive days) is recorded as “dose dependent decrease in cell viability”. Moreover, the “cell viability, combined dosing with carboplatin” value in the data set with glioma cell line (carboplatin and sodium valproate 6 h on two consecutive days) is on record as “greater decrease in cell viability compared with carboplatin alone”.
